Measured values from patent EP4745134A1 (Jiangsu Yahong Meditech Co., Ltd., priority 2023, dated 2025).
pIC50: −log10 of the molar value.

These compounds were tested against PRMT5-MTA (Homo sapiens, UniProt O14744) (assay: Enzymatic inhibitory activity against PRMT5-MTA (AlphaScreen)). Conditions: not given.
Assay type: biochemical
Protocol: The AlphaScreen method was used to detect the enzymatic inhibitory activity of the compounds against PRMT5-MTA. 1 x Methyltransferase assay buffer IV (signalchem) was prepared as a solution for diluting each component for the enzymatic reaction. PRMT5/[…] protein of a final concentration of 1 nM, […] (sigma) of a final concentration of 1 uM and S-(5'-adenosine)-L-methionine chloride dihydrochloride (sigma) of a final concentration of 2.5 uM were mixed, then incubated for 30 minutes at room temperature, and transferred to an OptiPlate-384 well plate (PerkinElmer) at a volume of 6 uL per well, for which no PRMT5/[…] protein was added to the control wells. The test compound was 3-fold serially diluted into 10 concentrations, starting from a concentration of 1000 nM, and the series of diluted compounds were added to all wells except the control wells in the well plate using Tecan D300e. The well plate was subjected to centrifugation for 1 minute at 1000 rpm in a centrifuge, and then incubated for 15 minutes at 23°C. Histone H4 substrate of a final concentration of 5 nM was added to the well plate at 4 uL per well, centrifuged for 1 minute at 1000 rpm in a centrifuge, then placed in an incubator at 23°C and reacted for 45 minutes. Anti-histone H4 (symmetrical dimethyl R3) antibody (Abcam) was incubated with 50 ug/mL of AlphaScreen Protein A Acceptor beads (PerkinElmer) for 10 minutes at room temperature beforehand, and then added to the well plate at a volume of 10 uL per well. The mixture was reacted for 1 hour at room temperature. 50 Ug/mL of AlphaScreen Streptavidin Donor beads (PerkinElmer) was added at 10 uL per well, and reacted for 1 hour at room temperature. The signal values were detected for the well plate through the Alpha method using an Envision multifunctional microplate-reader, and the IC50 values for inhibition of the compounds on PRMT5/MET50 enzyme activity were calculated in Xlfit 5.0 software. Table 1. IC50 values for inhibition of the compounds on PRMT5+MTA enzyme activity

PRMT5-MTA, sequence (O14744 whole entry): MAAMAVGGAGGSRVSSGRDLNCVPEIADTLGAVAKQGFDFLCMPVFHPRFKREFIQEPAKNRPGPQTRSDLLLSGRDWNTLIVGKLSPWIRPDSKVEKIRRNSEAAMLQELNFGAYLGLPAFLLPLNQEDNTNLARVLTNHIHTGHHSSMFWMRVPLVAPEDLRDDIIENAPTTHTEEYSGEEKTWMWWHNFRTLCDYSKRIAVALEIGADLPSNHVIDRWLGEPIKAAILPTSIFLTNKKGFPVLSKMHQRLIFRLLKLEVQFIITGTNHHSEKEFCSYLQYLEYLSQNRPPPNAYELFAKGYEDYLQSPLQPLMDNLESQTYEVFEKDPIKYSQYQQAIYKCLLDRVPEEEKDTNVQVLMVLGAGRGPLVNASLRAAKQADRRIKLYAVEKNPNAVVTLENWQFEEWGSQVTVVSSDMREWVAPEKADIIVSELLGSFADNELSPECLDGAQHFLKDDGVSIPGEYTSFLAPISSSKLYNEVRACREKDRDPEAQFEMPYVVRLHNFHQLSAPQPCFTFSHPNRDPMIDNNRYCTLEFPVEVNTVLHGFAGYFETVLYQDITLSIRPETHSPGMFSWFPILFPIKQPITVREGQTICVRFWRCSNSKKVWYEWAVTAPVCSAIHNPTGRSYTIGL
PRMT5-MTA, sequence (Q9BQA1 whole entry partner): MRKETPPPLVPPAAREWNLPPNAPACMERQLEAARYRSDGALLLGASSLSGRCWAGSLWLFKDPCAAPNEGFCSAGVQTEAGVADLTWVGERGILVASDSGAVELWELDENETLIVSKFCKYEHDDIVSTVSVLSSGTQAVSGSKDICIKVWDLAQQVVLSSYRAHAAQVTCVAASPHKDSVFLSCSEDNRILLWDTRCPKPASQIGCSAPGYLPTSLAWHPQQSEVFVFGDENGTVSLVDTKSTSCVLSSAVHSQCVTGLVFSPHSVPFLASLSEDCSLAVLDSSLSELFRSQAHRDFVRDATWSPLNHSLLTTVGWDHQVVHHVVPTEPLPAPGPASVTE

| Compound | pIC50 |
| --- | --- |
| Cc1cc2nc(N)c3cnn(C)c3c2cc1C(=O)N(C)N1c2ccccc2CC1C (centres unmarked) [Example 280] | 8.40 |

Same assay, conditions: read-out: IC50

| Compound | pIC50 |
| --- | --- |
| Cc1cc2cc(C(=O)N(Cc3ccc(-c4scnc4C)cn3)N(c3nccc4nccnc34)C3CC3)ccc2nc1N [Example 165, 2-amino-N'-cyclopropyl-3-methyl-N-((5-(4-methylthiazol-5-yl)pyridin-2-yl)methy 1)-N'-(pyrido[3,4-b]pyrazin-5-yl)quinoline-6-carbohydrazide] | 8.48 |
| Cc1cc2cc(C(=O)N(Cc3ccc(-c4nn[nH]n4)cn3)N(C)c3ncccn3)ccc2nc1N [Example 245, N-((5-(2H-tetrazol-5-yl)pyridin-2-yl)methyl)-2-amino-N',3-dimethyl-N'-(pyrimidin-2-y 1)quinoline-6-carbohydrazide] | 8.02 |
| Cc1cc2cc(C(=O)N(Cc3ccc(-c4cnn(C(F)(F)F)c4)cn3)Nc3ncccn3)ccc2nc1N [Example 249, 2-amino-3-methyl-N'-(pyrimidin-2-yl)-N-((5-(1-(trifluoromethyl)-1H-pyrazol-4-yl)pyridin-2-yl)methyl)quinoline-6-carbohy drazide] | 7.40 |
| Cc1cc2nc(N)c3cnn(C)c3c2cc1C(=O)N(Cc1ccc(-c2scnc2C)cn1)N(c1ncccn1)C1CC1 [Example 251, 4-amino-N'-cyclopropyl-1,7-dimethyl-N-((5-(4-methylthiazol-5-yl)pyridin-2-yl)methyl)-N'-(pyrimidin-2-yl)-1H-pyrazolo[4 ,3-c]quinoline-8-carbohydrazide] | 8.39 |
| Cc1ncsc1-c1ccc(CN(C(=O)c2ccc3nc(N)c4cnn(C)c4c3c2)N(c2ncccn2)C2CC2)nc1 [Example 252, 4-amino-N'-cyclopropyl-1-methyl-N-((5-(4-methylthiazol-5-yl)pyridin-2-yl)methyl)-N'-(pyrimidin-2-yl)-1H-pyrazolo[4,3-c] quinoline-8-carbohydrazide] | 8.32 |
| Cc1ncsc1-c1ccc(CN(C(=O)c2cc3c(cc2F)nc(N)c2cnn(C)c23)N(c2ncccn2)C2CC2)nc1 [Example 253, 4-amino-N'-cyclopropyl-7-fluoro-1-methyl-N-((5-(4-methylthiazol-5-yl)pyridin-2-yl)methyl)-N'-(pyrimidin-2-yl)-1H-pyraz olo[4,3-c]quinoline-8-carbohydrazide] | 8.21 |
| Cc1cc2cc(C(=O)N(Cc3ccc(C4=CCNCC4)cn3)N(C)c3ncccn3)ccc2nc1N [Example 262, 2-amino-N',3-dimethyl-N'-(pyrimidin-2-yl)-N-((1',2',3',6'-tetrahydro-[3,4'-bipyridine]-6-yl)methyl)quinoline-6-carbohydrazide] | 8.07 |
| Cc1cc2nc(N)c3cnn(C)c3c2cc1C(=O)N(C)N1CCCc2cccnc21 [Example 268, 4-amino-N-(3,4-dihydro-1,8-naphthyridin-1(2H)-yl)-N,1,7-trimethyl-1H-pyrazolo[4,3-c]quinoline-8-carboxamide] | 8.46 |
| Cc1cc2cc(C(=O)N(Cc3ccc(C(F)(F)F)cn3)N(c3ncccn3)C3CC3)c(F)cc2nc1N [Example 269, 2-amino-N'-cyclopropyl-7-fluoro-3-methyl-N'-(pyrimidin-2-yl)-N-((5-(trifluoromethyl)pyridin-2-yl)methyl)quinoline-6-car bohydrazide] | 8.24 |

Results, then the compound that gave them:

| pIC50 | Compound |
| --- | --- |
| 8.24 | Cc1cc2nc(N)c3c(cnn3C)c2cc1C(=O)N(Cc1ccc(C(F)(F)F)cn1)N(C)c1ncccn1 [Example 81, 4-amino-N',3,7-trimethyl-N'-(pyrimidin-2-yl)-N-((5-(trifluoromethyl)pyridin-2-yl)methyl)-3H-pyrazolo[3,4-c]quinoline-8-carbohydrazide] |
| 8.70 | Cc1cc2cc(C(=O)N(Cc3ncc(Br)cn3)N(C)c3ncccc3F)ccc2nc1N [Example 89, 2-amino-N-((5-bromopyrimidin-2-yl)methyl)-N'-(3-fluoropyridin-2-yl)-N',3-dimet hylquinoline-6-carbohydrazide] |
| 8.59 | Cc1cc2cc(C(=O)N(Cc3ccc(C(F)(F)F)cn3)N(C)c3ncc(S(C)(=O)=O)cn3)ccc2nc1N [Example 96, 2-amino-N',3-dimethyl-N'-(5-(methylsulfonyl)pyrimidin-2-yl)-N-((5-(trifluoromethyl)pyridin-2-yl)methyl)quinoline-6-carbohydrazide] |
| 7.76 | Cc1cc2cc(C(=O)N(Cc3ccc(C(F)(F)F)cn3)N(CC(F)(F)F)c3ncccn3)ccc2nc1N [Example 98, 2-amino-3-methyl-N'-(pyrimidin-2-yl)-N' -(2,2,2-trifluoroethyl)-N-((5-(trifluoromethyl)pyridin-2-yl)methyl)quinoline-6-carbohydrazide] |
| 8.54 | Cc1cc2cc(C(=O)N(Cc3cccc(C(F)(F)F)n3)N(C)c3ncccn3)ccc2nc1N [Example 103, 2-amino-N',3-dimethyl-N'-(pyrimidin-2-yl)-N-((6-(trifluoromethyl)pyridin-2-yl)methyl)quinoline-6-carbohydrazide] |
| 8.72 | Cc1cc2cc(C(=O)N(Cc3ccc(C(F)(F)F)cn3)N(C)c3ncccc3Br)ccc2nc1N [Example 106, 2-amino-N'-(3-bromopyridin-2-yl)-N',3-d imethyl-N-((5-(trifluoromethyl)pyridin-2-yl)methyl)quinoline-6-carbohydrazide] |
| 8.70 | CCN(C(=O)c1ccc2nc(N)c3c(c2c1)COC3)N(C)c1ccc(C(F)(F)F)cc1 [Example 115, 4-amino-N-ethyl-N-methyl-N-(4-(trifluoromethyl)phenyl)-1,3-dihydrofuro[3,4-c]quinoline-8-carbohydrazide] |
| 8.64 | Cc1cc2cc(C(=O)N(Cc3ccc(C(F)(F)F)cn3)n3c(=O)n(C)c4cccnc43)ccc2nc1N [Example 118, 2-amino-3-methyl-N-(1-methyl-2-oxo-1,2-dihydro-3H-imidazo[4,5-b]pyridin-3-yl)-N-((5-(trifluoromethyl)pyridin-2-yl)methyl)quinoline-6-carboxamide] |
| 8.64 | CCc1cccnc1N(C)N(Cc1ccc(C(F)(F)F)cn1)C(=O)c1ccc2nc(N)c(C)cc2c1 [Example 134, 2-amino-N'-(3-ethylpyridin-2-yl)-N',3-dimethyl-N-((5-(trifluoromethyl)pyridin-2-yl)methyl)quinoline-6-carbohydrazide] |
| 8.44 | Cc1cc2cc(C(=O)N(Cc3ccc(C(F)(F)F)cn3)N(C)c3ncccc3C(C)C)ccc2nc1N [Example 136, 2-amino-N'-(3-isopropylpyridin-2-yl)-N', 3-dimethyl-N-((5-(trifluoromethyl)pyridin-2-yl)methyl)quinoline-6-carbohydrazide] |
| 8.89 | Cc1cc2cc(C(=O)N(Cc3ccc(C4CC4)cc3F)N(C)c3nccc4nccnc34)ccc2nc1N [Example 167, 2-amino-N-(4-cyclopropyl-2-fluorobenzy 1)-N',3-dimethyl-N'-(pyrido[3,4-b]pyrazin-5-yl)quinoline-6-carbohydrazide] |
| 8.74 | Cc1cc2cc(C(=O)N(Cc3ccc(C(F)(F)F)cn3)N(C)c3ncc(I)cn3)ccc2nc1N [Example 267, 2-amino-N'-(5-iodopyrimidin-2-yl)-N',3-dimethyl-N-((5-(trifluoromethyl)pyridin-2-yl)methyl)quinoline-6-carbohydrazide] |
| 8.54 | Cc1cc2cc(C(=O)N(Cc3ccc(C(F)(F)F)cn3)N(C)c3nccc4cnn(C)c34)ccc2nc1N [Example 275, 2-amino-N',3-dimethyl-N'-(1-methyl-1H-pyrazolo[3,4-c]pyridin-7-yl)-N-((5-(trifluoromethyl)pyridin-2-yl)methyl)quinoline-6-carbohydrazide] |
